Columns and labels:
[1] = tested on: electrically paced left atrium; assay: Activity on isolated rat atria: tension of electrically paced left atrium; set-up: species or system Sprague-Dawley male rats; settings: 32°C; for Emax: maximal effect with respect to isoprenaline maximum (isoprenaline 10^-7M = 1), Krebs solution, read-out: Tension Intrinsic activity; for EC50: molar concentration producing 50% of the compound's own maximum response
Procedure: (§1) Sprague-Dawley male rats (300-400 g) are killed and the right and left atria dissected out independently and mounted on a combined tissue holder/electrode. The tissues are then immersed in a glass bath containing Krebs solution maintained at 32°C. The rate of the spontaneously beating right atrium (via an isometric transducer and a ratemeter) and the tension of the electrically paced left atrium (via an isometric transducer)are recorded on a M19 chart recorder.
(§2) After an initial stabilization period, the tissues are exposed to a maximal concentration of isoprenaline (10^-7M). The tissues are then washed several times until rate and tension return to baseline level. A dose-response curve to the test compound is then carried out.
(§3) Responses to each concentration of test compound are expressed as a percentage of the maximal responses to isoprenaline. Results are given in the form of (a) intrinsic activity (maximal effect of test compound with respect to isoprenaline maximum, i.e. isoprenaline intrinsic activity = 1) and (b) EC50 (the molar concentration at which the test compound produces 50% of its own maximum response).

[2] = tested on: left ventricular pressure (LVP); assay: Assessment of inotropic activity in conscious cats; format: in vivo; settings: 0.2 mg/kg p.o., gelatin capsule, recording 6 hours post dosing
Procedure: Male 3-4.5 kg cats, bred in-house, are implanted with a polythene cannula in the left ventricle which is exte- riorised at the back of the neck by means of a small teflon valve. Recordings are made via a pressure transducer attached by means of a length of polyethylene tubing to the cat neck valve.
During an initial 1 hour stabilisation period, steady baseline recordings are obtained. The test compound, contained in a gelatin capsule, is then administered orally. Recording is normally carried out for 6 hours post dosing.
The maximal percentage change in dp/dt over initial baseline level is used as the index of inotropic activity. Chronotropic activity is taken as the maximal percentage change in HR over initial baseline level.

[3] = tested on: spontaneously beating right atrium; assay: Activity on isolated rat atria: rate of spontaneously beating right atrium; set-up: species or system Sprague-Dawley male rats; settings: 32°C; for Emax: maximal effect with respect to isoprenaline maximum (isoprenaline 10^-7M = 1), Krebs solution, read-out: Rate Intrinsic activity; for EC50: molar concentration producing 50% of the compound's own maximum response
Procedure: as §1, §2, §3

Row | EC50 [1] [nM] | EC50 [3] [nM] | Compound | Emax [1] [%] | Peak HR ([2]; maximal percentage change in HR over initial baseline (chronotropic activity)) [%] | Peak dp/dt ([2]; maximal percentage change in dp/dt over initial baseline (inotropic activity)) [%] | Emax [3] [%]
1 | 25 | 10 | CNC(=O)COc1ccc(OCC(C)NCC(O)COc2ccc(O)cc2)cc1 (stereo not shown) [Example 1, N-methyl 4-[2-[3-(4-hydroxyphenoxy)-2-hydroxypropylamino]-2-methylethoxy]phenoxyacetamide] | 88 | 0 | 22 | 94
2 | 150 | 68 | CNC(=O)COc1ccc(OCCNCC(O)COc2ccc(O)cc2)cc1 (stereo not shown) [Example 2, N-methyl 4-[2-[3-(4-hydroxyphenoxy)-2-hydroxypropylamino]ethoxy]-phenoxyacetamide] | 61 |  |  | 77
